Measurements published in ChEMBL document CHEMBL2321781, “Synthesis and in vitro antimalarial testing of neocryptolepines: SAR study for improved activity by introduction and modifications of side chains at C2 and C11 on indolo[2,3-b]quinolines” (J Med Chem, 2013).
The source made the active and inactive calls. The calls are words filed in the database; no cut-off is given here.

Experiments:
[1] = Selectivity index, ratio of IC50 for rat L6 cells to IC50 for chloroquine-sensitive Plasmodium falciparum NF54; type: toxicity, cell-based; conditions: read-out: Ratio IC50
[2] = test system: Plasmodium falciparum; assay: microbe, parasite or virus in culture; conditions: NF54
Description: Antimalarial activity against chloroquine-sensitive Plasmodium falciparum NF54 after 72 hrs by [3H]hypoxanthine incorporation assay

[3] = test system: Plasmodium falciparum; assay: Antimalarial activity against chloroquine-resistant Plasmodium falciparum K1 after 72 hrs by [3H]hypoxanthine incorporation assay; type: functional, organism-based
[4] = Toxicity against rat L6 cells after 72 hrs by Alamar blue assay; type: cell-based
[5] = Selectivity index, ratio of IC50 for rat L6 cells to IC50 for chloroquine-resistant Plasmodium falciparum K1; type: toxicity, cell-based; conditions: read-out: Ratio IC50
[6] = test system: Trypanosoma brucei rhodesiense; assay: Antiparasitic activity against Trypanosoma brucei rhodesiense STIB900 bloodstream forms incubated for 70 hrs by Alamar blue assay; type: functional, organism-based; conditions: STIB900, 70 h
[7] = test system: Leishmania donovani; assay: Antiparasitic activity against Leishmania donovani MHOM/ET/67/L82 axenic amastigotes after 70 hrs by Alamar blue assay; type: functional, organism-based; conditions: MHOM/ET/67/L82, 70 h
[8] = test system: Trypanosoma cruzi; assay: Antiparasitic activity against Trypanosoma cruzi Tulahuen C2C4 expressing beta-galactosidase infected in rat L6 cells after 96 hrs; type: functional, organism-based; conditions: Tulahuen C2C4, L6, 96 h
[9] = test system: Mus musculus; assay: Toxicity in Plasmodium berghei ANKA infected Swiss mouse assessed as weight loss at 50 mg/kg, ip qd for 4 days; type: organism-based; set-up: dose 50 mg/kg, route intraperitoneal; conditions: in vivo, 96 h
[10] = test system: Plasmodium berghei; assay: Antimalarial activity against Plasmodium berghei ANKA infected in Swiss mouse assessed as reduction parasitaemia at 50 mg/kg, ip qd for 4 days measured 24 hrs after last treatment; type: functional; set-up: scale not given: the % may be the effect or the level left

SMILES: Cn1c2nc3ccccc3c-2c(NCCCN2C(=O)CCSC2c2ccc(F)cc2)c2ccccc21 (stereo unspecified)
- selectivity ratio [1]: 71.6
- IC50 [2]: 38.1 nM
- IC50 [3]: 112 nM
- IC50 at 72 h [4]: 2730 nM
- selectivity ratio [5]: 24.3

SMILES: Cn1c2nc3ccccc3c-2c(NCCCCCCNC(=O)Nc2ccccc2)c2ccccc21
- selectivity ratio [1]: 15.4
- IC50 [2]: 25.8 nM
- IC50 at 72 h [4]: 397 nM

SMILES: Cn1c2nc3ccccc3c-2c(NCCCN)c2cc(Cl)ccc21
- selectivity ratio [1]: 22.8
- IC50 [2]: 11.8 nM
- IC50 at 72 h [4]: 269 nM

SMILES: C[C@@H]1CC[C@H]2[C@@H](C)C(=O)O[C@@H]3O[C@@]4(C)CC[C@@H]1[C@]32OO4 [ARTEMISININ]
- IC50 [2]: 4.3 nM
- IC50 [3]: 2.8 nM

SMILES: Cn1c2nc3ccccc3c-2c(NCCCN)c2cc([N+](=O)[O-])ccc21
- selectivity ratio [1]: 18.3
- IC50 [2]: 11.4 nM
- IC50 at 72 h [4]: 209 nM

SMILES: Cn1c2nc3ccccc3c-2c(NCCCN2C(=O)c3ccccc3SC2c2ccc(Cl)cc2)c2ccccc21 (stereo unspecified)
- selectivity ratio [1]: 41.3
- IC50 [2]: 26.6 nM
- IC50 [3]: 21.3 nM
- IC50 at 72 h [4]: 1100 nM
- selectivity ratio [5]: 51.6
- IC50 [6]: 868 nM
- IC50 [7]: 9750 nM
- IC50 [8]: 2360 nM

SMILES: Cn1c2nc3ccccc3c-2cc2ccccc21 [NEOCRYPTOLEPINE]
- selectivity ratio [1]: 2
- IC50 [2]: 1580 nM
- IC50 [3]: 1700 nM
- IC50 at 72 h [4]: 3190 nM
- selectivity ratio [5]: 1.9

SMILES: Cn1c2nc3ccccc3c-2c(NCCCN)c2cc(F)ccc21
- selectivity ratio [1]: 6.8
- IC50 [2]: 49.6 nM
- IC50 at 72 h [4]: 338 nM

SMILES: Cn1c2nc3ccccc3c-2c(NCCCNC(=O)Nc2ccccc2)c2cc(Br)ccc21
- selectivity ratio [1]: 706
- IC50 [2]: 4 nM
- IC50 [3]: 11.9 nM
- IC50 at 72 h [4]: 2830 nM
- selectivity ratio [5]: 238

SMILES: Cn1c2nc3ccccc3c-2c(NCCCNC(=S)Nc2ccccc2)c2ccccc21
- selectivity ratio [1]: 135
- IC50 [2]: 9.1 nM
- IC50 [3]: 112 nM
- IC50 at 72 h [4]: 1230 nM
- Activity [9]: Toxic
- selectivity ratio [5]: 11
- IC50 [6]: 589 nM
- IC50 [7]: 79200 nM
- IC50 [8]: 6120 nM
- Activity ([10]; route intraperitoneal): 15.4%

SMILES: Cn1c2nc3ccccc3c-2c(NCCCNC(=O)Nc2ccccc2)c2cc(F)ccc21
- selectivity ratio [1]: 143
- IC50 [2]: 24.9 nM
- IC50 [3]: 313 nM
- IC50 at 72 h [4]: 3560 nM
- selectivity ratio [5]: 11.4

SMILES: Cn1c2nc3ccccc3c-2c(NCCCCCCN)c2ccccc21
- selectivity ratio [1]: 7.1
- IC50 [2]: 98.1 nM
- IC50 at 72 h [4]: 693 nM

SMILES: Cn1c2nc3ccccc3c-2c(NCCCNC(=O)c2cccs2)c2ccccc21
- selectivity ratio [1]: 17.3
- IC50 [2]: 258 nM
- IC50 at 72 h [4]: 4460 nM

SMILES: Cn1c2nc3ccccc3c-2c(NCCCNS(=O)(=O)c2ccccc2)c2ccccc21
- selectivity ratio [1]: 1
- IC50 [2]: 63 nM
- IC50 [3]: 124 nM
- IC50 at 72 h [4]: 65.2 nM
- selectivity ratio [5]: 0.5
- IC50 [6]: 164 nM
- IC50 [7]: 58000 nM
- IC50 [8]: 1600 nM

SMILES: Cn1c2nc3ccccc3c-2c(NCCCNC(=O)Nc2ccccc2)c2ccccc21
- selectivity ratio [1]: 58.4
- IC50 [2]: 21.3 nM
- IC50 [3]: 9.4 nM
- IC50 at 72 h [4]: 1240 nM
- Activity [9]: Toxic
- selectivity ratio [5]: 132
- IC50 [6]: 607 nM
- IC50 [7]: 97500 nM
- IC50 [8]: 10600 nM
- Activity ([10]; route intraperitoneal): 22.1%

SMILES: Cn1c2nc3ccccc3c-2c(NCCCNC(=O)Nc2ccccc2)c2cc([N+](=O)[O-])ccc21
- selectivity ratio [1]: 1300
- IC50 [2]: 2.1 nM
- IC50 [3]: 29.9 nM
- IC50 at 72 h [4]: 2730 nM
- selectivity ratio [5]: 91.4

SMILES: Cn1c2nc3ccccc3c-2c(Cl)c2ccccc21 [11-CHLORONEOCRYPTOLEPINE]
- selectivity ratio [1]: 0.7
- IC50 [2]: 2060 nM
- IC50 [3]: 2000 nM
- IC50 at 72 h [4]: 1460 nM
- selectivity ratio [5]: 0.7

SMILES: Cn1c2nc3ccccc3c-2c(NCCCN2C(=O)CCSC2c2ccc(Cl)cc2)c2ccccc21 (stereo unspecified)
- selectivity ratio [1]: 64.1
- IC50 [2]: 52.4 nM
- IC50 [3]: 38.8 nM
- IC50 at 72 h [4]: 3360 nM
- selectivity ratio [5]: 86.6
- IC50 [6]: 548 nM
- IC50 [7]: 13000 nM
- IC50 [8]: 3180 nM

SMILES: Cn1c2nc3ccccc3c-2c(NCCCNC(=O)Nc2ccccc2)c2cc(C(F)(F)F)ccc21
- selectivity ratio [1]: 313
- IC50 [2]: 4.1 nM
- IC50 [3]: 48.8 nM
- IC50 at 72 h [4]: 1280 nM
- selectivity ratio [5]: 26.3

SMILES: COc1ccc2c(c1)c(NCCCNC(=O)Nc1ccccc1)c1c3ccccc3nc-1n2C
- selectivity ratio [1]: 621
- IC50 [2]: 4.4 nM
- IC50 [3]: 2.2 nM
- IC50 at 72 h [4]: 2730 nM
- selectivity ratio [5]: 1240

SMILES: Cn1c2nc3ccccc3c-2c(NCCCNS(=O)(=O)c2ccc3ccccc3c2)c2ccccc21
- selectivity ratio [1]: 1.3
- IC50 [2]: 14.2 nM
- IC50 at 72 h [4]: 18.2 nM

SMILES: Cn1c2nc3ccccc3c-2c(NCCCN)c2cc(Br)ccc21
- selectivity ratio [1]: 24.8
- IC50 [2]: 10.4 nM
- IC50 at 72 h [4]: 258 nM

SMILES: CCCCCCCCCCCCCCCCOP(=O)([O-])OCC[N+](C)(C)C [MILTEFOSINE]
- IC50 [7]: 361 nM

SMILES: CCCCNC(=O)NCCCNc1c2c3ccccc3nc-2n(C)c2ccccc12
- selectivity ratio [1]: 16.7
- IC50 [2]: 104 nM
- IC50 at 72 h [4]: 1740 nM

SMILES: O=C(Cn1ccnc1[N+](=O)[O-])NCc1ccccc1 [BENZNIDAZOLE]
- IC50 [8]: 1610 nM

SMILES: Cn1c2nc3ccccc3c-2c(NCCCN)c2cc(C(F)(F)F)ccc21
- selectivity ratio [1]: 86.3
- IC50 [2]: 10.7 nM
- IC50 at 72 h [4]: 924 nM

SMILES: CN(C)c1ccc(C2SCC(=O)N2CCCNc2c3c4ccccc4nc-3n(C)c3ccccc23)cc1 (stereo unspecified)
- selectivity ratio [1]: 64.7
- IC50 [2]: 54.9 nM
- IC50 [3]: 143 nM
- IC50 at 72 h [4]: 3550 nM
- selectivity ratio [5]: 24.8
- IC50 [6]: 1370 nM
- IC50 [7]: 26100 nM
- IC50 [8]: 2730 nM

SMILES: Cn1c2nc3ccccc3c-2c(NCCCN2C(=O)CSC2c2ccc(Cl)cc2)c2ccccc21 (stereo unspecified)
- selectivity ratio [1]: 54.4
- IC50 [2]: 63.9 nM
- IC50 [3]: 144 nM
- IC50 at 72 h [4]: 3470 nM
- selectivity ratio [5]: 24.2

SMILES: Cn1c2nc3ccccc3c-2c(NCCCNC(=O)Nc2ccccc2)c2cc(Cl)ccc21
- selectivity ratio [1]: 1400
- IC50 [2]: 2.2 nM
- IC50 [3]: 21.8 nM
- IC50 at 72 h [4]: 3080 nM
- Activity [9]: Toxic
- selectivity ratio [5]: 141
- Activity [10]: inactive

SMILES: Cn1c2nc3ccccc3c-2c(NCCCN)c2ccccc21
- selectivity ratio [1]: 3.5
- IC50 [2]: 78.8 nM
- IC50 [3]: 29.6 nM
- IC50 at 72 h [4]: 279 nM
- selectivity ratio [5]: 9.4

SMILES: COc1ccc2c(c1)c(NCCCN)c1c3ccccc3nc-1n2C
- selectivity ratio [1]: 5.1
- IC50 [2]: 74.8 nM
- IC50 at 72 h [4]: 383 nM
